Data from ChEMBL document CHEMBL1201862, “PubChem BioAssay data set” (2004).
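Growth conditions: 96-well plates. Treatment: test compound, 48 hours, 5 concentrations. Analysis: linear interpolation between bracketing concentrations; unreached endpoints set to highest concentration. GI50: concentration for 50% inhibition of growth.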 Active and inactive are the calls of the source. Cut-off read from the data, not from the text of the source: active = GI50 up to about 1.1 µM and inactive = higher.

Columns and labels:
Assay in all cases: NCI tumour cell line growth inhibition, 48 h
786-0 = test system: 786-0
A498 = test system: A498
A549 = test system: A549
CCRF-CEM = test system: CCRF-CEM
EKVX = test system: EKVX
HCT-15 = test system: HCT-15
HL-60 = test system: HL-60
HOP-92 = test system: HOP-92
M14 = test system: M14
MDA-MB-231 = test system: MDA-MB-231
NCI-H226 = test system: NCI-H226
OVCAR-8 = test system: OVCAR-8
PC-3 = test system: PC-3
SF-268 = test system: SF-268
SF-295 = test system: SF-295
SF-539 = test system: SF-539
SK-MEL-28 = test system: SK-MEL-28
SK-OV-3 = test system: SK-OV-3
SW-620 = test system: SW-620
UACC-257 = test system: UACC-257

Structure (SMILES)	GI50 (786-0)	GI50 (A498)	GI50 (A549)	GI50 (CCRF-CEM)	GI50 (EKVX)	GI50 (HCT-15)	GI50 (HL-60)	GI50 (HOP-92)	GI50 (M14)	GI50 (MDA-MB-231)	GI50 (NCI-H226)	GI50 (OVCAR-8)	GI50 (PC-3)	GI50 (SF-268)	GI50 (SF-295)	GI50 (SF-539)	GI50 (SK-MEL-28)	GI50 (SK-OV-3)	GI50 (SW-620)	GI50 (UACC-257)
Cc1c([N+](=O)[O-])oc2ccc3ccccc3c12	18.1 µM (inactive)	22.8 µM (inactive)	66.1 µM (inactive)	6.32 µM (inactive)	23 µM (inactive)	19 µM	3.18 µM (inactive)	> 100 µM (inactive)	21.5 µM (inactive)	> 100 µM (inactive)	> 100 µM (inactive)	26.1 µM (inactive)	86.9 µM (inactive)	35.7 µM (inactive)	58.1 µM (inactive)	28.2 µM (inactive)	> 100 µM (inactive)	20.8 µM (inactive)	20.2 µM (inactive)	78 µM (inactive)
Cc1ccc2nc(C(C)C)c(=O)[nH]c2c1	52.7 µM (inactive)	> 100 µM (inactive)	57 µM (inactive)	> 100 µM (inactive)	> 100 µM (inactive)	> 100 µM	> 100 µM (inactive)	> 100 µM (inactive)	> 100 µM (inactive)	> 100 µM (inactive)	> 100 µM (inactive)	26.1 µM (inactive)	19.9 µM (inactive)	> 100 µM (inactive)	71 µM (inactive)	85.1 µM (inactive)	> 100 µM (inactive)	> 100 µM (inactive)	> 100 µM (inactive)	> 100 µM (inactive)
O=c1[nH]c(Cc2ccccc2)nc2c1sc1nc3ccccc3n12	> 100 µM (inactive)	> 100 µM (inactive)	> 100 µM (inactive)	> 100 µM (inactive)	> 100 µM (inactive)	> 100 µM	> 100 µM (inactive)	> 100 µM (inactive)	> 100 µM (inactive)	> 100 µM (inactive)	> 100 µM (inactive)	> 100 µM (inactive)	> 100 µM (inactive)	> 100 µM (inactive)	> 100 µM (inactive)	> 100 µM (inactive)	> 100 µM (inactive)	> 100 µM (inactive)	> 100 µM (inactive)	> 100 µM (inactive)
CC(=O)Nc1ccc2c3c(cc(O)c2c1)N(C(=O)CCCCCCC(=O)Nc1ccc2c4c(cc(O)c2c1)N(C(=O)OC(C)(C)C)CC4CCl)CC3CCl (stereo not given)	0.0757 µM (active)	0.0244 µM (active)	0.195 µM (active)	< 0.01 µM (active)	0.304 µM (active)	2.64 µM	< 0.0108 µM (active)	0.158 µM (active)	0.0791 µM (active)	0.319 µM (active)	0.144 µM (active)	0.0973 µM (active)	0.105 µM (active)	0.0291 µM (active)	0.0776 µM (active)	0.0637 µM (active)	0.279 µM (active)	0.0705 µM (active)	0.0968 µM (active)	0.148 µM (active)
